Tested on: hemoglobin-haptoglobin complex
Experiment: Stability of hemoglobin (as hemoglobin-haptoglobin complex) in samples preserved at 37° C. in preservation solution containing 1 unit/L haptoglobin, Hb measured by latex agglutination method (Examples 1 to 7)
Set-up: species or system human
Details: arylboronic acid 15 mmol/L, 37° C.
Protocol: Preservation solutions were prepared with the addition of 40 mmol/L HEPES (pH 6.8), 0.1% BSA, 0.1% NaN3, 1 unit/L haptoglobin, and 0 to 100 mmol/L phenylboronic acid. Samples obtained by adding hemoglobin-added fecal specimens to the preservation solutions so that the fecal concentration would be 0.5% were preserved at 37° C. for 0, 7, 14, and 21 days. The fecal specimens were added with hemoglobin having an amount such that the hemoglobin concentration in the samples would be about 300 μg/L. Instead of the fecal specimens to which hemoglobin was added, samples containing no fecal specimens, in which hemoglobin was added to the preservation solutions so that the hemoglobin concentration in the samples would be 300 μg/L, were similarly preserved. The hemoglobin (Hb) concentrations (μg/L) in the preserved samples were measured by the latex agglutination method.
The concentrations of hemoglobin were measured using “OC-Hemodia (registered trademark) Auto III ‘EIKEN’” (available from EIKEN CHEMICAL CO., LTD.) as a measurement reagent and “OC-sensor DIANA” (available from EIKEN CHEMICAL CO., LTD.) as a measurement device. The above measurement reagent contains latex particles immobilizing an anti-human hemoglobin rabbit polyclonal antibody.
From the measured concentrations of hemoglobin, the recovery ratios (%) were calculated with respect to the hemoglobin concentrations immediately after the fecal specimens were added to the preservation solutions (i.e., concentrations 0 days after the fecal specimens were added).
(§1) For comparative examples, preservation solutions to which no arylboronic acid was added were prepared, and testing was conducted in the same manner.
(§2) The concentration of phenylboronic acid in the preservation solutions of Example 1 was fixed to 15 mmol/L, preservation solutions to which a sugar (sorbitol, sucrose, trehalose, glucose, fructose, or mannitol) was further added at 50 mmol/L or 100 mmol/L or preservation solutions to which no sugar was added were prepared, and testing was conducted in the same manner as in Example 1. For comparative examples, preservation solutions to which the phenylboronic acid and sugar were not added were prepared, and testing was conducted in the same manner.
Preservation solutions in which sorbitol, sucrose, trehalose, glucose, fructose, or mannitol was added at 100 mmol/L to the preservation solutions of Example 1 containing no phenylboronic acid were prepared, and testing was conducted in the same manner as in Example 1. For comparison, the same testing was conducted without adding these sugars.
as §2, with “sorbitol” for “a sugar (sorbitol, sucrose, trehalose, glucose, fructose, or mannitol)”, “was” for “was further”, “10 to 500” for “50”, “sucrose was added at 10 to 250” for “100”
as §1

| Structure (SMILES) | Hb concentration (Feces 1, 0 days) [µg/L] | Recovery ratio with respect to Hb after 0 days (Feces 1, 0 days) [%] | Hb concentration (Feces 1, 7 days) [µg/L] | Recovery ratio with respect to Hb after 0 days (Feces 1, 7 days) [%] | Hb concentration (Feces 1, 14 days) [µg/L] | Recovery ratio with respect to Hb after 0 days (Feces 1, 14 days) [%] | Hb concentration (Feces 2, 0 days) [µg/L] | Recovery ratio with respect to Hb after 0 days (Feces 2, 0 days) [%] | Hb concentration (Feces 2, 7 days) [µg/L] | Recovery ratio with respect to Hb after 0 days (Feces 2, 7 days) [%] | Hb concentration (Feces 2, 14 days) [µg/L] | Recovery ratio with respect to Hb after 0 days (Feces 2, 14 days) [%] | Hb concentration (Feces 3, 0 days) [µg/L] | Recovery ratio with respect to Hb after 0 days (Feces 3, 0 days) [%] | Hb concentration (Feces 3, 7 days) [µg/L] | Recovery ratio with respect to Hb after 0 days (Feces 3, 7 days) [%] | Hb concentration (Feces 3, 14 days) [µg/L] | Recovery ratio with respect to Hb after 0 days (Feces 3, 14 days) [%] | Hb concentration (No feces, 0 days) [µg/L] | Recovery ratio with respect to Hb after 0 days (No feces, 0 days) [%] | further results |
| --- | --- | --- | --- | --- | --- | --- | --- | --- | --- | --- | --- | --- | --- | --- | --- | --- | --- | --- | --- | --- | --- |
| O=C(O)c1ccccc1B(O)O [2C-PBA, 2-carboxyphenylboronic acid] | 315 | 100 | 196 | 62 | 150 | 48 | 311 | 100 | 157 | 50 | 103 | 33 | 300 | 100 | 124 | 41 | 76 | 25 | 292 | 100 | Hb concentration (No feces, 7 days): 272 µg/L; Recovery ratio with respect to Hb after 0 days (No feces, 7 days): 93%; Hb concentration (No feces, 14 days): 264 µg/L; Recovery ratio with respect to Hb after 0 days (No feces, 14 days): 90% |
| O=C(O)c1ccc(B(O)O)cc1 [4C-PBA, 4-carboxyphenylboronic acid] | 312 | 100 | 252 | 81 | 234 | 75 | 315 | 100 | 239 | 76 | 227 | 72 | 300 | 100 | 219 | 73 | 194 | 65 | 279 | 100 | Hb concentration (No feces, 7 days): 275 µg/L; Recovery ratio with respect to Hb after 0 days (No feces, 7 days): 98%; Hb concentration (No feces, 14 days): 271 µg/L; Recovery ratio with respect to Hb after 0 days (No feces, 14 days): 97% |

From patent publication US12215140B2, “Method of stabilizing protein contained in specimen and solution for stabilizing protein contained in specimen” (EIKEN KAGAKU KABUSHIKI KAISHA, priority 2018, dated 2025)
